Assay results published in patent publication EP1295874A2, “Retroviral protease inhibiting compounds” (Abbott Laboratories, priority 1995, dated 1997).
Like-named read-outs stand apart in the source and are kept apart here.

Key:
HIV protease = target: T1, HIV protease (Human immunodeficiency virus type 1 group M subtype B, UniProt P04585); assay: Fluorogenic Assay for Screening Inhibitors of HIV Protease; assay type: biochemical; details: Inhibitor Concentration 0.5 nanomolar; read-out: Percent Inhibition
T1 construct: HIV protease consists of two identical subunits, each of which has 99 amino acid residues
Method: The inhibitory potency of the compound of the invention can be determined by the following method.
The compound of the invention is dissolved in DMSO and a small aliquot further diluted with DMSO to 100 times the final concentration desired for testing. The reaction is carried out in a 6 X 50 mm tube in a total volume of 300 microliters. The final concentrations of the components in the reaction buffer are: 125 mM sodium acetate, 1 M sodium chloride, 5 mM dithiothreitol, 0.5 mg/ml bovine serum albumin, 1.3 µM fluorogenic substrate, 2% (v/v) dimethylsulfoxide, pH 4.5. After addition of inhibitor, the reaction mixture is placed in the fluorometer cell holder and incubated at 30°C for several minutes. The reaction is initiated by the addition of a small aliquot of cold HIV protease. The fluorescence intensity (excitation 340 nm, emmision 490 nM) is recorded as a function of time. The reaction rate is determined for the first six to eight minutes. The observed rate is directly proportional to the moles of substrate cleaved per unit time. The percent inhibition is 100 X (1 - (rate in presence of inhibitor)/(rate in absence of inhibitor)).
Fluorogenic substrate: Dabcyl-Gaba-Ser-Gln-Asn-Tyr-Pro-lle-Val-Gln-EDANS wherein DABCYL = 4-(4-dimethylamino-phenyl)azobenzoic acid, Gaba = γ-aminobutyric acid, and EDANS = 5-((2-aminoethyl)amino)-naphthalene-1-sulfonic acid.

HIVIIIB = assay: Antiviral activity (anti-HIV activity) in MT4 cells, MTT readout; assay type: cell-based; details: Human immunodeficiency virus 1, MT4, 120 h, read-out: IC50 (µM, 0% plasma)
Text: (§1) The anti-HIV activity of the compound of the invention can be determined in MT4 cells according to the following procedure. MT4 cells were infected with cell-free supernatant of HIVIIIB (previously frozen with known 50% tissue culture infectious dose (TCID50) at 0.003 multiplicity of infection (MOI) for one hour. After one hour infection, cells were washed twice to remove residual viruses, resuspended in culture media and seeded into 96-well tissue culture plates at 1x10^4 cells per well with various half-log dilutions of compounds. Uninfected cells are included as toxicity and cell controls. RPMI 1640 media (Gibco ) with 10% fetal bovine serum were used as culture media. Various concentrations of human serum (Sigma) 50%, 25% and 12.5% were added to culture media resulting in final concentration of 60%, 35% and 22.5% total serum. All assay plates were incubated in 37 deg. cent. incubator for 5 days. MTT (sigma, 5 mg/ml stock in PBS) was added to all wells at 25 ul per well, incubate for 4 hours. 20%SDS with 0.02 N HCl in water was added at 50 ul per well to lyse cellls. Plates incubated overnight for complete lyses were read on a microtitre plate reader at 570/650 nm wavelengths to determine cell optical density (O.D.). Raw data were analysed for percent inhibition by the following formula: (O.D. test well - O.D. virus control)/(O.D. cell control -O.D. virus control)x100 [formula] The 50% effective concentration (EC50) was calculated by the median effect equation (Chou, 1975,Proc. Int. Cong. Pharmacol. 6th p. 619) to determine the efficacy of compound. The 50% lethal concentration (LC50) was calculated using uninfected MT4 cells.
(§2) Under these conditions, the following data were obtained (n = 4 duplicate determinations: Table 2

[1] = system: HIV Selected In Vitro by the Compound of Example 2B; assay: microbe, parasite or virus in culture; assay type: cell-based
Passaged HIV-1 = assay: Phenotypic susceptibility of in vitro passaged HIV-1 to the compound of Example 2B (MTT colorimetric assay); assay type: cell-based
[2] = system: Ritonavir-Resistant HIV from Patients; assay: microbe, parasite or virus in culture; assay type: cell-based
[3] = 50% lethal concentration in uninfected MT4 cells (MTT); assay type: cell-based; details: human, read-out: LC50
Text: as §1, §2

[4] = system: Ritonavir-Resistant Mutant HIV Clones; assay: microbe, parasite or virus in culture; assay type: cell-based

Cc1cccc(C)c1OCC(=O)N[C@@H](Cc1ccccc1)[C@@H](O)C[C@H](Cc1ccccc1)NC(=O)[C@H](C(C)C)N1CCCNC1=O [Example 2B, (2S, 3S, 5S)-2-(2,6-Dimethylphenoxyacetyl) amino-3-hydroxy-5-[2S-(1-tetrahydro-pyrimid-2-onyl)-3-methylbutanoyl] amino-1,6-diphenylhexane]
inhibition at 0.0005 µM (HIV protease): 93.2% | IC50 (HIVIIIB): 0.016 µM | EC50 ([1]; Human immunodeficiency virus 1, NL43, Virus NL4-3): 28 nM | EC50 ([1]; Human immunodeficiency virus 1, Virus P7): 116 nM | EC50 ([1]; Human immunodeficiency virus 1, Virus P11): 349 nM | EC50 ([1]; Human immunodeficiency virus 1, Virus P14): 1280 nM | EC50 ([1]; Human immunodeficiency virus 1, Virus P17): 9480 nM | EC50 (Passaged HIV-1; Human immunodeficiency virus 1, 384 h, read-out: The compound of Example 2B EC50 (µM), Virus P2 (selected at 0.02 µM, 16 days in culture)): 0.025 µM | EC50 (Passaged HIV-1; Human immunodeficiency virus 1, NL43, read-out: The compound of Example 2B EC50 (µM), Virus NL4-3): 0.028 µM | EC50 (Passaged HIV-1; Human immunodeficiency virus 1, read-out: The compound of Example 2B EC50 (µM), Virus P6 (selected at 0.12 µM, 58 days in culture)): 0.149 µM | EC50 (Passaged HIV-1; Human immunodeficiency virus 1, read-out: The compound of Example 2B EC50 (µM), Virus P7 (selected at 0.15 µM, 65 days in culture)): 0.201 µM | EC50 (Passaged HIV-1; Human immunodeficiency virus 1, read-out: The compound of Example 2B EC50 (µM), Virus P8 (selected at 0.21 µM, 75 days in culture)): 0.295 µM | EC50 (Passaged HIV-1; Human immunodeficiency virus 1, read-out: The compound of Example 2B EC50 (µM), Virus P9 (selected at 0.30 µM, 82 days in culture)): 0.333 µM | EC50 (Passaged HIV-1; Human immunodeficiency virus 1, read-out: The compound of Example 2B EC50 (µM), Virus P10 (selected at 0.30 µM, 93 days in culture)): 0.464 µM | EC50 (Passaged HIV-1; Human immunodeficiency virus 1, read-out: The compound of Example 2B EC50 (µM), Virus P11 (selected at 0.42 µM, 100 days in culture)): 0.346 µM | EC50 (Passaged HIV-1; Human immunodeficiency virus 1, read-out: The compound of Example 2B EC50 (µM), Virus P12 (selected at 0.62 µM, 107 days in culture)): 0.291 µM | EC50 (Passaged HIV-1; Human immunodeficiency virus 1, read-out: The compound of Example 2B EC50 (µM), Virus P13 (selected at 0.80 µM, 114 days in culture)): 1 µM | EC50 (Passaged HIV-1; Human immunodeficiency virus 1, read-out: The compound of Example 2B EC50 (µM), Virus P14 (selected at 1.10 µM, 121 days in culture)): 1.11 µM | EC50 (Passaged HIV-1; Human immunodeficiency virus 1, read-out: The compound of Example 2B EC50 (µM), Virus P15 (selected at 1.50 µM, 128 days in culture)): 1.34 µM | EC50 (Passaged HIV-1; Human immunodeficiency virus 1, read-out: The compound of Example 2B EC50 (µM), Virus P16 (selected at 2.00 µM, 135 days in culture)): 1.43 µM | EC50 ([2]; Human immunodeficiency virus 1, 24 h, Patient No. 313, Day 1, baseline): 4 nM | EC50 ([2]; Human immunodeficiency virus 1, 24 h, Patient No. 410, Day 1, baseline): 6 nM | EC50 ([2]; Human immunodeficiency virus 1, 504 h, Patient No. 104, Day 21, V82A): 9 nM | EC50 ([2]; Human immunodeficiency virus 1, 672 h, Patient No. 104, Day 28, V82T): 13 nM | EC50 ([2]; Human immunodeficiency virus 1, Patient No. 104, Day -1, baseline): 8 nM | EC50 ([2]; Human immunodeficiency virus 1, Patient No. 129, Day 84, M36I, I54V, A71V, V82T): 33 nM | EC50 ([2]; Human immunodeficiency virus 1, Patient No. 129, Day 140, K20K/R, M36M/I, I54V, A71A/V, V82T): 29 nM | EC50 ([2]; Human immunodeficiency virus 1, Patient No. 129, Day -1, baseline): 5 nM | EC50 ([2]; Human immunodeficiency virus 1, Patient No. 131, Day 88, M36I, 154V>I, V82A): 15 nM | EC50 ([2]; Human immunodeficiency virus 1, Patient No. 131, Day 200, K20K/R, M36I, I54I/V, V82A): 52 nM | EC50 ([2]; Human immunodeficiency virus 1, Patient No. 131, Day -28, baseline): 4 nM | EC50 ([2]; Human immunodeficiency virus 1, Patient No. 224, Day 110, L33L/F, V82T/S): 12 nM | EC50 ([2]; Human immunodeficiency virus 1, Patient No. 224, Day 190, K20K/N/R, L33L/F, M36M/I, I54V/M, V82S): 52 nM | EC50 ([2]; Human immunodeficiency virus 1, Patient No. 224, Day -6, baseline): 6 nM | EC50 ([2]; Human immunodeficiency virus 1, Patient No. 235, Day 167, I54I/V, A71V, V82A. L90L/M): 6 nM | EC50 ([2]; Human immunodeficiency virus 1, Patient No. 235, Day -1, baseline): 6 nM | EC50 ([2]; Human immunodeficiency virus 1, Patient No. 313, Day 57, M36M/I, V82F): 11 nM | EC50 ([2]; Human immunodeficiency virus 1, Patient No. 313, Day 85, M36M/I, I54I/V, V82S/F/A/T): 25 nM | EC50 ([2]; Human immunodeficiency virus 1, Patient No. 410, Day 57, M36M/I, I54I/V, V82A): 33 nM | EC50 ([2]; Human immunodeficiency virus 1, Patient No. 410, Day 85, M36I, I54V, V82A): 97 nM | CC50 at 120 h [3]: 17.8 µM | EC50 ([4]; Human immunodeficiency virus 1, HXB2, Virus Clone Wild Type (HXB2), 0% Human Serum): 12 nM | EC50 ([4]; Human immunodeficiency virus 1, HXB2, Virus Clone Wild Type (HXB2), 50% Human Serum): 51 nM | EC50 ([4]; Human immunodeficiency virus 1, Virus Clone E35D, M36I, I54V, A71V, V82T, 0% Human Serum): 83 nM | EC50 ([4]; Human immunodeficiency virus 1, Virus Clone E35D, M36I, I54V, A71V, V82T, 50% Human Serum): 691 nM | EC50 ([4]; Human immunodeficiency virus 1, Virus Clone G48V, 0% Human Serum): 8 nM | EC50 ([4]; Human immunodeficiency virus 1, Virus Clone G48V, 50% Human Serum): 156 nM | EC50 ([4]; Human immunodeficiency virus 1, Virus Clone I54V, V82T, 0% Human Serum): 213 nM | EC50 ([4]; Human immunodeficiency virus 1, Virus Clone I54V, V82T, 50% Human Serum): 1150 nM | EC50 ([4]; Human immunodeficiency virus 1, Virus Clone I84V, 0% Human Serum): 20 nM | EC50 ([4]; Human immunodeficiency virus 1, Virus Clone I84V, 50% Human Serum): 170 nM | EC50 ([4]; Human immunodeficiency virus 1, Virus Clone K20R, E35D, M36I, I54V, A71V, V82T, 0% Human Serum): 93 nM | EC50 ([4]; Human immunodeficiency virus 1, Virus Clone K20R, E35D, M36I, I54V, A71V, V82T, 50% Human Serum): 376 nM | EC50 ([4]; Human immunodeficiency virus 1, Virus Clone L90M, 0% Human Serum): 16 nM | EC50 ([4]; Human immunodeficiency virus 1, Virus Clone L90M, 50% Human Serum): 180 nM | EC50 ([4]; Human immunodeficiency virus 1, Virus Clone V82A, 0% Human Serum): 33 nM | EC50 ([4]; Human immunodeficiency virus 1, Virus Clone V82A, 50% Human Serum): 268 nM | EC50 ([4]; Human immunodeficiency virus 1, Virus Clone V82F, 0% Human Serum): 26 nM | EC50 ([4]; Human immunodeficiency virus 1, Virus Clone V82F, 50% Human Serum): 147 nM | EC50 ([4]; Human immunodeficiency virus 1, Virus Clone V82S, 0% Human Serum): 26 nM | EC50 ([4]; Human immunodeficiency virus 1, Virus Clone V82S, 50% Human Serum): 314 nM | EC50 ([4]; Human immunodeficiency virus 1, Virus Clone V82T, 50% Human Serum): 147 nM | EC50 ([4]; Human immunodeficiency virus 1, Virus Clone Wild Type (pNL4-3), 0% Human Serum): 22 nM | EC50 ([4]; Human immunodeficiency virus 1, Virus Clone Wild Type (pNL4-3), 50% Human Serum): 126 nM
